These results are taken from US20230364047A1, “USE OF ESTER GROUP-[…] PR[…] IN PREPARATION OF MEDICINE FOR TREATING DRY EYE SYNDROME” (CHANGCHUN GENESCIENCE PHARMACEUTICAL CO., LTD., priority 2020, published 2023).

Marks after values point to notes of the source that are not given here.

Data set [1] is described as follows: Body weight and general state of castrated male rabbits during and after topical eye administration. The conditions noted are these: x ± s, n=5. Here is the method:
(§1) 5, 2014-Oct. […] Body weight was measured on the first day and the last day of the quarantine period. • 7 Grouping and Identifying Method for Experimental Animals • 7.1 Identifying method for animals • 7.1.1 Quarantine period: fed in separate cages, tag hung on each cage, and no marking of animals. • 7.1.2 Administration observation period: marked by staining with saturated picric acid solution, and 5 rabbits in each group were marked in the following ways, respectively: head, back, tail, head and back, and white. • 7.2 Grouping of experimental animals: after the quarantine period was finished, 5 rabbits were randomly selected according to the body weight and used in the normal control group, and the rest rabbits were used in the modeling group. […] 5, 2014-Aug. 11, 2014 • 9.3 Date of grouping: Aug. 12, 2014, Sep. 15, 2014 • 9.4 Date of modeling: Aug. 12, 2014 • 9.5 Administration time: Sep. 15, 2014 • 9.6 Animal sacrifice time: Oct. 27, 2014 • 9.2 Duration of administration: two consecutive weeks from Sep. 15, 2014 to Sep. […] An aseptic towel was spread out, testicles at two sides were sequentially squeezed into the scrotum from abdominal cavity and clenched to prevent them from sliding, a small opening was cut on the scrotum with a sterilized blade, the testicles were squeezed out by force, the spermatic vein and vas deferens were ligated, the testicles and epididymis were cut out, the scrotum skin was sutured, and iodine tincture was coated locally to prevent infection. • 11.2 Administration method: administration was started on day 35 after the operation, at a prescribed dose for 14 consecutive days. • 11.3 Detection indexes: for each group, basal tear secretion (Schirmer I test), corneal fluorescence staining (PI) and tear film break-up time (BUT) were detected before the modeling and on days 0, 7, and 14 after the administration by performing surface anesthesia. • 11.3.1 Basal tear secretion (Schirmer I test): the 5 mm forepart of a qualitative filter paper (35 mm×6 mm) was reversely folded and placed in the lower eyelid bitamporal conjunctival sac, and the tear infiltration length (including the reversely-folded segment) of the test paper after 5 min was detected and recorded. • 11.3.2 Scoring criteria for corneal fluorescence staining (PI): 1% fluorescein sodium was applied to both eyes of a rabbit without subsequent rinsing, and a slit-lamp microscope was used for observation.

In data set [2] the test system is dry eye syndrome caused by castration of male rabbits. Description: Basal tear secretion (Schirmer I test) in castrated male rabbits. Type of data set: in vivo, Japanese big-ear white rabbit. The procedure: as §1
For data set [3] the test system is unchanged. Description: Corneal fluorescence staining (PI) score in castrated male rabbits. Format: in vivo, Japanese big-ear white rabbit. The conditions noted are these: score 0-4, x ± s, n=5. The procedure:
(§2) 5, 2014-Oct. […] Body weight was measured on the first day and the last day of the quarantine period. • 7 Grouping and Identifying Method for Experimental Animals • 7.1 Identifying method for animals • 7.1.1 Quarantine period: fed in separate cages, tag hung on each cage, and no marking of animals. • 7.1.2 Administration observation period: marked by staining with saturated picric acid solution, and 5 rabbits in each group were marked in the following ways, respectively: head, back, tail, head and back, and white. • 7.2 Grouping of experimental animals: after the quarantine period was finished, 5 rabbits were randomly selected according to the body weight and used in the normal control group, and the rest rabbits were used in the modeling group. […] 5, 2014-Aug. 11, 2014 • 9.3 Date of grouping: Aug. 12, 2014, Sep. 15, 2014 • 9.4 Date of modeling: Aug. 12, 2014 • 9.5 Administration time: Sep. 15, 2014 • 9.6 Animal sacrifice time: Oct. 27, 2014 • 9.2 Duration of administration: two consecutive weeks from Sep. 15, 2014 to Sep. […]

Data set [4] shares this test system. Briefly: Histopathology examination of harderian gland and meibomian gland in castrated male rabbits. Format: in vivo, Japanese big-ear white rabbit. As to conditions: HE sections, in words. The procedure: as §2
[5] abbreviates: topical to the eyes for 14 days.
Setting [6] is: castrated male rabbits, topical to the eyes, Schirmer I 5 min, x ± s, n=5.

In the case of `CCC(=O)O[C@H]1CC[C@H]2[C@@H]3CCC4=CC(=O)CC[C@]4(C)[C@H]3CC[C@]12C` [Positive 2, testosterone propionate], in data set [1] (setting [5]), the “Weight of rabbits, Day 7 after drug withdrawal” value amounted to 3.0 ± 1.21 kg; the “Weight of rabbits, Day 14 after drug withdrawal” value was found to be 3.3 ± 1.31 kg; the “Weight of rabbits, Day 21 after drug withdrawal” value is 3.6 ± 1.07 kg; the “Weight of rabbits, Day 28 after drug withdrawal” value was 4.0 ± 1.20 kg. For the same molecule, in data set [1] (topical to the eyes), the “Weight of rabbits, Day 7 of administration” value was determined as 2.4 ± 1.10 kg and the “Weight of rabbits, Day 14 of administration” value is 2.6 ± 1.05 kg. In addition, in data set [2] (castrated male rabbits, topical to the eyes for 14 days, Schirmer I 5 min, x ± s, n=5), the “Tear secretion, Day 28 after drug withdrawal” value is reported as 12.2 ± 3.48 mm. Also, in data set [2] (setting [6]), the “Tear secretion, Day 7 of administration” value is on record as 12.7 ± 2.84 mm and the “Tear secretion, Day 14 of administration” value is recorded as 14.8 ± 3.17*^Δ▴ mm. Also, the “Tear secretion, effect in words” value in data set [2] (castrated rabbits, compared with the model group and the solvent group (P<0.05)) is listed as “increased markedly”. For the same molecule, the “Corneal staining score, Day 28 after drug withdrawal” value in data set [3] (setting [5]) is 3.0 ± 1.22. Besides, in data set [3] (topical to the eyes), the “Corneal staining score, Day 7 of administration” value amounted to 2.8 ± 0.22 and the “Corneal staining score, Day 14 of administration” value is reported as 2.2 ± 0.57*^Δ▴. Further, the “Histopathology of harderian gland and meibomian gland compared with the model group” value in data set [4] was “marked ameliorating”.
